Measured values taken from patent US20230183774A1, “COLORIMETRIC ASSAY FOR HIGH THROUGHPUT, FACILE AND RAPID ANTIMICROBIAL SUSCEPTIBILITIES TESTING” (Georgia Tech Research Corporation, priority 2021, published 2023).
Converted amounts (≈) assume the structure as drawn. Like-named read-outs stand apart in the source and are kept apart here.

Columns and labels:
Assay type in all cases: cell-based
[1] = system: E. coli sample (positive blood culture); assay: ChroMIC automated colorimetric MIC assay directly from positive blood culture; conditions: for MIC: Escherichia coli
Protocol: In order to prepare the contrast agent, sterile human whole blood (ZenBio, Research Triangle Park, N.C.) was stored at 4° C. and used within two weeks. […] For use as contrast, whole blood was diluted in sterile cation-adjusted Mueller Hinton broth (CAMHB; BD Biosciences, San Jose, Calif.) media (10% v/v).
Relating to an example colorimetric AST directly from positive blood culture —BacT/ALERT FA PLUS positive blood cultures were 500-fold diluted in CAMHB media and dispensed in the 96-well plate antibiotic panels. […] Final antibiotic concentrations ranged from approximately 0.03125 μg/mL to approximately 64 μg/mL along each row, with final dilution of blood cultures being 1000-fold. […] Wells H1, H9, and H10 are media-only negative controls, while wells H11 and H12 are no-antibiotic positive controls. […] ChroMIC ASTs were performed and compared (blinded) against both Vitek-2-determined MICs and vs. BMD. Each blood culture was also plated to retroactively determine inoculum size used.
Negative control wells with antibiotics and media only were allocated to ensure the sterility of media and antibiotics. Positive control wells were prepared to track bacterial growth without antibiotics and these controls were used in developing real-time automated analysis. After preparation of assays, the 96-well plates were covered with sterile sealing film (VWR International, Radnor, Pa.) and incubated at 37° C. for 18 hours with imaging as described below.
Example instruments used with the example colorimetric AST are disclosed herein. Four computer-controlled cameras (Raspberry Pi HQ) were connected to an ArduCam multicamera board in a Raspberry Pi 4B computer running the latest version of Raspian operating system. Within an incubator held at approximately 37° C., 96-well microtiter plates were held in 3D-printed holders, approximately 10 cm above the camera. A low distortion wide-angle lens was used to image microtiter plates from below, with LED illumination from above. Software collected images once every 15 minutes from each active camera over an 18-hour period. Images were analyzed both visually and by computer for red, green, and blue channel pixel intensities. Automated well detection was performed with OpenCV in python based on color value and the two most significant principal color components within each well were calculated and used to determine positive versus negative bacterial growth. […] SVM-derived probabilities were used to determine growth or no growth in each well. The left—most well in each row maintaining bright red color (no growth) was taken as the MIC.
ChroMIC assays were automated to acquire one image every 15 minutes over 18 hours. […] Wells can be automatically detected based on their color and the mean RGB color values can be taken from the average color of a 40×40 pixel area around each well centroid. Principal components using RGB values as input dimensions can be calculated for the wells in each image. […] Wells H1-H10 on each image and all wells (A1-H12) from the first hour (5 images—all before growth occurs) can be used as negative control wells. […] Since PCs are calculated for each image, all positive and negative controls are rotated into the current image PC space. A grid search can be performed to find the optimal SVM discriminant (FIG. 20B), and probabilities are used to assign growth (+) or no growth (−) for each well.
FIGS. 20-23 show aspects of automated real-time ChroMIC assay of an E. coli sample. An example of acquired images at different times (0 hours, 4 hours, 6 hours, 8 hours, 10 hours, 12 hours and 18 h) is shown in FIG. 19. […] This enables labels and MIC determinations for each antibiotic at each time point.

[2] = system: E. coli strain Mu890; assay: Rapid colorimetric AST in spiked human whole blood / blood culture medium (colour change, near IR absorbance); conditions: 37° C.; for Susceptibility of Mu890 (colorimetric assay / near IR absorption): CLSI susceptible and resistant breakpoints, 2.55 × 10^4 CFU/mL in wells, 24 hours; for Susceptibility of Mu890 (colour change of blood): rapid colorimetric AST, CLSI breakpoint concentrations, 96-well plate, up to 24 hours incubation
Text: (§1) The antibiotics concentration and the initial concentration of bacterial cells in the wells shown in FIG. 8A are tabulated in Table 3.

[3] = system: E. coli strain Mu890; assay: Standard broth microdilution (BMD), turbidity; conditions: validation of near IR experiment, 6×10^6 CFU/mL per well
Protocol: This color change results from the growth and presence of viable bacteria. When bacteria are resistant to the given antibiotic concentration, the color change is clearly observed. […] Results were validated by comparing with the gold standard BMD (FIGS. 4A and 4B). The gold standard BDM requires 16 to 24 hours incubation of plates after isolation of pure bacteria from positive blood cultures. In this case, the BMD was done by subculturing a pure colony of Mu890 in 4 mL CAMHB for 3 hours, followed by OD-600 adjustment such that the final concentration of bacteria is 6×10^6 CFU/mL per well. The plate was incubated at 37° C. for 18 hours and the image was acquired (FIG. 4B).

[4] = system: P. aeruginosa strain PA46; assay: Standard broth microdilution (BMD); conditions: 6×10^6 CFU/mL per well
Protocol: as §1
The bacterial density in the standard BMD method was 6×10^6 CFU/mL per well before incubation, while the bacterial density in the colorimetric assay before the incubation is given in Table 3.

[5] = real-time Bayesian updated MIC, 4 hour, read-out: MIC (4 hour)
[6] = real-time Bayesian updated MIC, 6 hour, read-out: MIC (6 hour)
[7] = real-time Bayesian updated MIC, 8 hour, read-out: MIC (8 hour)
[8] = real-time Bayesian updated MIC, 10 hour, read-out: MIC (10 hour)
[9] = real-time Bayesian updated MIC, 12 hour, read-out: MIC (12 hour)
[10] = real-time Bayesian updated MIC, 16 hour, read-out: MIC (16 hour)

## NCC[C@H](O)C(=O)N[C@@H]1C[C@H](N)[C@@H](O[C@H]2O[C@H](CN)[C@@H](O)[C@H](O)[C@H]2O)[C@H](O)[C@H]1O[C@H]1O[C@H](CO)[C@@H](O)[C@H](N)[C@H]1O [Amikacin, amikacin]
[1]; [5]
  MIC: 1 µg/mL (≈ 1.71 µM)
[1]; [6]
  MIC: 1 µg/mL (≈ 1.71 µM)
[1]; [7]
  MIC: 1 µg/mL (≈ 1.71 µM)
[1]; [8]
  MIC: 2 µg/mL (≈ 3.42 µM)
[1]; [9]
  MIC: 2 µg/mL (≈ 3.42 µM)
[1]; [10]
  MIC: 2 µg/mL (≈ 3.42 µM)

## CO/N=C(\C(=O)N[C@@H]1C(=O)N2C(C(=O)[O-])=C(C[N+]3(C)CCCC3)CS[C@H]12)c1csc(N)n1 [Cefepime, cefepime]
[1]; 4 h, read-out: MIC (4 hour)
  MIC: ≤ 0.0312 µg/mL
[1]; 6 h, read-out: MIC (6 hour)
  MIC: ≤ 0.0312 µg/mL
[1]; 8 h, read-out: MIC (8 hour)
  MIC: ≤ 0.0312 µg/mL
[1]; 10 h, read-out: MIC (10 hour)
  MIC: ≤ 0.0312 µg/mL
[1]; 12 h, read-out: MIC (12 hour)
  MIC: ≤ 0.0312 µg/mL
[1]; 16 h, read-out: MIC (16 hour)
  MIC: ≤ 0.0312 µg/mL

## CC(C)(O/N=C(\C(=O)N[C@@H]1C(=O)N2C(C(=O)[O-])=C(C[n+]3ccccc3)CS[C@H]12)c1csc(N)n1)C(=O)O [Ceftazidime, ceftazidime]
[2]
  Susceptibility of Mu890 (colorimetric assay / near IR absorption): susceptible
  Susceptibility of Mu890 (colour change of blood): sensitive
[3]
  Susceptibility of Mu890 (standard BMD method): susceptible
[1]; [5]
  MIC: 0.25 µg/mL (≈ 0.457 µM)
[1]; [6]
  MIC: 0.25 µg/mL (≈ 0.457 µM)
[1]; [7]
  MIC: 0.125 µg/mL (≈ 0.229 µM)
[1]; [8]
  MIC: 0.125 µg/mL (≈ 0.229 µM)
[1]; [9]
  MIC: 0.125 µg/mL (≈ 0.229 µM)
[1]; [10]
  MIC: 0.125 µg/mL (≈ 0.229 µM)

## C[C@H]1COc2c(N3CCN(C)CC3)c(F)cc3c(=O)c(C(=O)O)cn1c23 [Levofloxacin, levofloxacin]
[1]; [5]
  MIC: ≤ 0.0312 µg/mL
[1]; [6]
  MIC: ≤ 0.0312 µg/mL
[1]; [7]
  MIC: ≤ 0.0312 µg/mL
[1]; [8]
  MIC: ≤ 0.0312 µg/mL
[1]; [9]
  MIC: ≤ 0.0312 µg/mL
[1]; [10]
  MIC: ≤ 0.0312 µg/mL

## C[C@@H](O)[C@H]1C(=O)N2C(C(=O)O)=C(S[C@@H]3CN[C@H](C(=O)N(C)C)C3)[C@H](C)[C@H]12 [Meropenem, meropenem]
[2]
  Susceptibility of Mu890 (colorimetric assay / near IR absorption): susceptible
[3]
  Susceptibility of Mu890 (standard BMD method): susceptible
[1]; [5]
  MIC: 0.0625 µg/mL (≈ 0.163 µM)
[1]; [6]
  MIC: ≤ 0.0312 µg/mL
[1]; [7]
  MIC: ≤ 0.0312 µg/mL
[1]; [8]
  MIC: ≤ 0.0312 µg/mL
[1]; [9]
  MIC: ≤ 0.0312 µg/mL
[1]; [10]
  MIC: ≤ 0.0312 µg/mL

## NC[C@H]1O[C@H](O[C@H]2[C@H](O)[C@@H](O[C@H]3O[C@H](CO)[C@@H](O)[C@H](N)[C@H]3O)[C@H](N)C[C@@H]2N)[C@H](N)C[C@@H]1O [Tobramycin, tobramycin]
[2]
  Susceptibility of Mu890 (colorimetric assay / near IR absorption): susceptible
  Susceptibility of Mu890 (colour change of blood): sensitive
[3]
  Susceptibility of Mu890 (standard BMD method): susceptible
[1]; [5]
  MIC: 0.5 µg/mL (≈ 1.07 µM)
[1]; [6]
  MIC: 0.5 µg/mL (≈ 1.07 µM)
[1]; [7]
  MIC: 0.5 µg/mL (≈ 1.07 µM)
[1]; [8]
  MIC: 0.5 µg/mL (≈ 1.07 µM)
[1]; [9]
  MIC: 1 µg/mL (≈ 2.14 µM)
[1]; [10]
  MIC: 1 µg/mL (≈ 2.14 µM)

## Cc1nnc(SCC2=C(C(=O)O)N3C(=O)[C@@H](NC(=O)Cn4cnnn4)[C@H]3SC2)s1 [cefazolin]
[4]
  Susceptibility of PA46 (standard BMD method): resistant

## gentamicin
[1]; real-time Bayesian updated MIC, 4 hour
  MIC (4 hour): 0.5 µg/mL
[1]; real-time Bayesian updated MIC, 6 hour
  MIC (6 hour): 0.5 µg/mL
[1]; real-time Bayesian updated MIC, 8 hour
  MIC (8 hour): 0.5 µg/mL
[1]; real-time Bayesian updated MIC, 10 hour
  MIC (10 hour): 1 µg/mL
[1]; real-time Bayesian updated MIC, 12 hour
  MIC (12 hour): 1 µg/mL
[1]; real-time Bayesian updated MIC, 16 hour
  MIC (16 hour): 1 µg/mL
